These results are taken from patent US10087188B2, “Benzamide imidazopyrazine Btk inhibitors” (MERCK SHARP & DOHME CORP., priority 2014, dated 2018).

One may read the IC50 as the concentration that inhibits the measured activity by half.

Where two headings read alike, the source gives them in different places.

Test [1] deals with BTK enzyme (recombinant full-length BTK, hBTK) (Homo sapiens (Human), UniProt Q06187). The experiment in a line: Btk enzyme activity assay, LANCE TR-FRET. Conditions: 50 pM hBTK, 2 μM biotin-A5-peptide, 25 μM ATP; 60 minute compound & enzyme incubation; read-out: BTK binding IC50. In kind it is biochemical. Here is the method:
Btk Enzyme Activity Assay Methods
BTK enzymatic activity was determined with the LANCE (Lanthanide Chelate Excite) TR-FRET (Time-resolved fluorescence resonance energy transfer) assay. […] After 60 minutes incubation with detection reagents, reaction plates were read on a PerkinElmer EnVision plate reader using standard TR-FRET protocol.

The subject of a further test is HeLa cells. The experiment in a line: [3H] Adenosine uptake assay. Conditions: accumulation of tritiated adenosine into HeLa cells, compound concentration range 10 μM to 0.032 nM, read-out: ADU inhibition IC50 (adenosine uptake inhibition potency). Format: cell-based. Here is the method:
Compounds are also screen in an adenosine uptake functional cellular assay using the protocol described below:
[^3H] Adenosine Uptake Assay Methods
Adenosine uptake activity was determined by monitoring the accumulation of tritiated adenosine into HeLa cells (ATCC catalog #CCL-2) using a PMT-based radiometric detection instrument. […] These cells were incubated overnight at 37° C. in a humidified atmosphere with 5% (v/v) CO2. After this time the growth medium was removed and replaced with 40 μL assay medium comprising: Hanks balanced salts solution (HBSS; Thermo Fisher Catalog #SH30268.01)+5% (v/v) FBS. Compound stock solutions in DMSO were diluted in assay medium to 2.5× final compound concentration maintaining a constant DMSO concentration of 0.25% (v/v). 40 μL of compound in assay medium was dispensed into individual wells of the Cytostar-T plates and the plates were incubated for 30 minutes under ambient laboratory conditions. Following this incubation, 20 μL of 500 nM[^3H] adenosine (American Radiolabeled Chemicals Inc. Catalog #ART0287) in assay medium was added and incubated for a further 60 minutes under ambient laboratory conditions. The amount of radiolabel accumulation was then determined using a Perkin Elmer Topcount NXT microplate reader. In brief, HeLa cells adhere to the bottom of the Cytostar-T plate, uptake of [^3H]adenosine into these cells brings the radiolabel into sufficient proximity to excite the scintillant in the base of the plates. These events are captured by single PMT, time-resolved coincidence counting. IC50 values were determined by 4 parameter robust fit of counts per second values vs. (Log10) compound concentrations.

Chain of BTK enzyme (recombinant full-length BTK, hBTK) (Q06187 whole entry): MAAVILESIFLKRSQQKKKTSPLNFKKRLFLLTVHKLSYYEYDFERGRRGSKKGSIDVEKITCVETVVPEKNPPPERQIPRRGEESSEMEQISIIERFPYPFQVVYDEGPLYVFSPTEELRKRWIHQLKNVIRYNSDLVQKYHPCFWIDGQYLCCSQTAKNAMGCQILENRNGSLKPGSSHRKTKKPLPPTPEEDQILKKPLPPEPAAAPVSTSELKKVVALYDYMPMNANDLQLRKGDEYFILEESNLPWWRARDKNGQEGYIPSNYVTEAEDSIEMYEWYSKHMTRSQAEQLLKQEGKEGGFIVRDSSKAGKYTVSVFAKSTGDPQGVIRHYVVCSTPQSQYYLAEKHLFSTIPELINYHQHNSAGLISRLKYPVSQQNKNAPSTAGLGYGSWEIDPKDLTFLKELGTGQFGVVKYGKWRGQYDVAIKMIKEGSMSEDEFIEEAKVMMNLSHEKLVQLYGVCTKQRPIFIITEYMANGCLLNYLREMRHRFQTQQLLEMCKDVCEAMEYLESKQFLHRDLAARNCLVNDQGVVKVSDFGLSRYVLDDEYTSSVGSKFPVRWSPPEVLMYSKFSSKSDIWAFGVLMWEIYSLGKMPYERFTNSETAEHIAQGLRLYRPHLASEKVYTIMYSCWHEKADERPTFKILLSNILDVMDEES

As to `CCOc1cc(C(=O)Nc2cc(C(F)(F)F)ccn2)cc(F)c1-c1nc([C@@H]2CC[C@](C)(C(=O)O)C2(C)C)n2c(F)cnc(N)c12` [Example 118, (1S,3R)-3-[8-amino-1-(2-ethoxy-6-fluoro-4-{[4-(trifluoromethyl)pyridin-2-yl]carbamoyl}phenyl)-5-fluoroimidazo[1,5-a]pyrazin-3-yl]-1,2,2-trimethylcyclopentane carboxylic acid], the IC50 in test [1] was 1.3 nM; with HeLa cells (Homo sapiens, HeLa), 10000 nM.
For `Nc1nccn2c([C@@H]3CCN[C@@H](C(=O)O)C3)nc(-c3ccc(C(=O)Nc4cc(C(F)(F)F)ccn4)cc3)c12` [Example 33, (2R,4R)-4-[8-amino-1-(4-{[4-(trifluoromethyl)pyridin-2-yl]carbamoyl}phenyl)imidazo[1,5-a]pyrazin-3-yl]piperidine-2-carboxylic acid] the same measures were 4.4 nM and 6800 nM.
For `Nc1nccn2c([C@H]3CC[C@@H](C(=O)N4CCC[C@@H]4C(=O)O)C3)nc(-c3ccc(C(=O)Nc4cc(C(F)(F)F)ccn4)cc3)c12` [Example 18, 1-({(1R,3S)-3-[8-amino-1-(4-{[4-(trifluoromethyl)pyridin-2-yl]carbamoyl}phenyl)imidazo[1,5-a]pyrazin-3-yl]cyclopentyl}carbonyl)-D-proline] the same measures were 2.6 nM and 10000 nM.
For `Nc1nccn2c([C@H]3CC[C@@H](C(=O)N4CCC[C@H]4C(=O)O)C3)nc(-c3ccc(C(=O)Nc4cc(C(F)(F)F)ccn4)cc3)c12` [Example 17, 1-({(1R,3S)-3-[8-amino-1-(4-{[4-(trifluoromethyl)pyridin-2-yl]carbamoyl}phenyl)imidazo[1,5-a]pyrazin-3-yl]cyclopentyl}carbonyl)-L-proline] the same measures were 1.9 nM and 10000 nM.
Turning to `CCOc1cc(C(=O)Nc2cc(C(F)(F)F)ccn2)ccc1-c1nc(C23C4C5C2C2C3C4C52C(=O)O)n2ccnc(N)c12` (stereo not drawn) [Example 71, 4-(8-amino-1-(2-ethoxy-4-((4-(trifluoromethyl)pyridin-2-yl)carbamoyl)phenyl)imidazo[1,5-a]pyrazin-3-yl)cubane-1-carboxylic acid], the IC50 in test [1] was found to be 0.65 nM; with HeLa cells (Homo sapiens, HeLa), 2470 nM.
With `Nc1nccn2c([C@@H]3CCC[C@H](C(=O)O)C3)nc(-c3ccc(C(=O)Nc4cc(C(F)(F)F)ccn4)cc3F)c12` [Example 10, (1S,3R)-3-[8-amino-1-(2-fluoro-4-{[4-(trifluoromethyl)pyridin-2-yl]carbamoyl}phenyl)imidazo [1,5-a]pyrazin-3-yl]cyclohexane-carboxylic acid], the IC50 in test [1] was found to be 0.39 nM; in the test with HeLa cells (Homo sapiens, HeLa), 10000 nM.
Take `Nc1nccn2c(C34C5C6C3C3C4C5C63C(=O)O)nc(-c3ccc(C(=O)Nc4cc(C5CC5)ccn4)cc3F)c12` (stereo not drawn) [Example 74, 4-(8-amino-1-(4-((4-cyclopropylpyridin-2-yl)carbamoyl)-2-fluorophenyl)imidazo [1,5-a]pyrazin-3-yl)cubane-1-carboxylic acid]: the 50% inhibitory concentration (IC50) was 0.54 nM in test [1] and 113 nM with HeLa cells (Homo sapiens, HeLa).
For `CC1(C(=O)O)CCCC(c2nc(-c3ccc(C(=O)Nc4cc(C5CC5)ccn4)cc3)c3c(N)nccn23)C1` (stereo not drawn) [Example 153, 3-(8-amino-1-{4-[(4-cyclopropylpyridin-2-yl)carbamoyl]phenyl}imidazo[1,5-a]pyrazin-3-yl)-1-methylcyclohexane-carboxylic acid] the same measures were 2.6 nM and 2480 nM.
For `Nc1nccn2c([C@H]3CC[C@H]4[C@H](C(=O)O)[C@H]43)nc(-c3ccc(C(=O)Nc4cc(C(F)(F)F)ccn4)cc3)c12` [Example 57, (1R,2S,5R,6S)-2-[8-amino-1-(4-{[4-(trifluoromethyl)pyridin-2-yl]carbamoyl}phenyl)imidazo[1,5-a]pyrazin-3-yl]bicyclo[3.1.0] hexane-6-carboxylic acid] the same measures were 3.2 nM and 10000 nM.
As to `CC1(C)CC(c2nc(-c3ccc(C(=O)Nc4cc(C(F)(F)F)ccn4)cc3)c3c(N)nccn23)CCC1C(=O)O` (stereo not drawn) [Example 20, 4-(8-amino-1-(4-((4-(trifluoromethyl)pyridin-2-yl)carbamoyl)phenyl)imidazo[1,5-a]pyrazin-3-yl)-2,2-dimethylcyclohexanecarboxylic acid], the concentration for half-maximal inhibition (IC50) amounted to 1.5 nM in test [1] and 5080 nM in the test on HeLa cells (Homo sapiens, HeLa).
Consider `CC(C)C1(C(=O)O)CCC(C)(c2nc(-c3ccc(C(=O)Nc4cc(C(F)(F)F)ccn4)cc3)c3c(N)nccn23)C1` (stereo not drawn) [Example 143, 3-[8-amino-1-(4-{[4-(trifluoromethyl)pyridin-2-yl]carbamoyl}phenyl)imidazo[1,5-a]pyrazin-3-yl]-3-methyl-1-(1-methylethyl)cyclopentane-carboxylic acid], for which the values for the IC50 (in test [1]; with HeLa cells) were 0.72 nM and 4010 nM, respectively.
Turning to `Nc1nccn2c(C34CCC(C(=O)O)(CC3)CC4)nc(-c3ccc(C(=O)Nc4cc(C(F)(F)F)ccn4)cc3F)c12` [Example 170, 4-[8-amino-1-(2-fluoro-4-{[4-(trifluoromethyl)pyridin-2-yl]carbamoyl}phenyl)imidazo[1,5-a]pyrazin-3-yl]bicyclo[2.2.2] octane-1-carboxylic acid], the IC50 stood at 0.16 nM in test [1] and 622 nM in the test with HeLa cells (Homo sapiens, HeLa).
Consider `COc1cc(C(=O)Nc2cc(C(F)(F)F)ccn2)ccc1-c1nc([C@H]2CN(C3CCC(C)(C(=O)O)CC3)CCO2)n2ccnc(N)c12` (stereo partly drawn) [Example 180, 4-{(2R)-2-[8-amino-1-(2-methoxy-4-{[4-(trifluoromethyl)pyridin-2-yl]carbamoyl}phenyl)imidazo [1,5-a]pyrazin-3-yl]morpholin-4-yl}-1-methylcyclohexanecarboxylic acid], for which the IC50 in test [1] was determined as 1.3 nM; with HeLa cells (Homo sapiens, HeLa), 6420 nM; in the test on HeLa cells, 3940 nM.
With `C[C@]1(C(=O)O)CC[C@@](C)(c2nc(-c3ccc(C(=O)Nc4cc(C(F)(F)F)ccn4)cc3)c3c(N)nccn23)C1` [Example 80, (1S,3R)-3-[8-amino-1-(4-{[4-(trifluoromethyl)pyridin-2-yl]carbamoyl}phenyl)imidazo[1,5-a]pyrazin-3-yl]-1,3-dimethylcyclopentane carboxylic acid], the IC50 stood at 2.4 nM in test [1] and 9480 nM in the test on HeLa cells (Homo sapiens, HeLa).
Take `Nc1nccn2c([C@H]3CCN[C@@H](C(=O)O)C3)nc(-c3ccc(C(=O)Nc4cc(C(F)(F)F)ccn4)cc3)c12` [Example 31, (2R,4S)-4-[8-amino-1-(4-{[4-(trifluoromethyl)pyridin-2-yl]carbamoyl}phenyl)imidazo[1,5-a]pyrazin-3-yl]piperidine-2-carboxylic acid]: the IC50 in test [1] is 2.6 nM.
For the compound `Nc1nccn2c([C@@H]3CCC[C@H](C(=O)O)C3)nc(-c3ccc(C(=O)Nc4cc(OC5CC5)ccn4)cc3)c12` [Example 12, (1S,3R)-3-[8-amino-1-(4-{[4-(cyclopropyloxy)pyridin-2-yl]carbamoyl}phenyl)imidazo [1,5-a]pyrazin-3-yl]cyclohexane-carboxylic acid], the IC50 in test [1] came to 1.7 nM.
Same read-out and setting: the figure for `C[C@]1(C(=O)O)CCC[C@@H](c2nc(-c3ccc(C(=O)Nc4cc(C5CC5)ccn4)cc3)c3c(N)nccn23)C1` [Example 155, (1S,3R)-3-(8-amino-1-{4-[(4-cyclopropylpyridin-2-yl)carbamoyl]phenyl}imidazo[1,5-a]pyrazin-3-yl)-1-methylcyclohexane-carboxylic acid] is 2.8 nM; for `Nc1nccn2c([C@H]3CCC[C@@H](C(=O)O)C3)nc(-c3ccc(C(=O)Nc4cc(C5CC5)ccn4)cc3)c12` [Example 4, (1R,3S)-3-(8-amino-1-{4-[(4-cyclopropyl-pyridin-2-yl)carbamoyl]phenyl}imidazo [1,5-a]pyrazin-3-yl)cyclohexane-carboxylic acid] it is 29.5 nM; for `COc1cc(C(=O)Nc2cc(C(F)(F)F)ccn2)ccc1-c1nc([C@@H]2CCC[C@H](C(=O)O)C2)n2ccnc(N)c12` [Example 11, (1S,3R)-3-[8-amino-1-(2-methoxy-4-{[4-(trifluoromethyl)pyridin-2-yl]carbamoyl}phenyl)imidazo [1,5-a]pyrazin-3-yl]cyclohexane-carboxylic acid] it is 1.6 nM.
Consider `Nc1nccn2c([C@@H]3CCC[C@H](C(=O)O)C3)nc(-c3ccc(C(=O)Nc4cc(C5CC5)ccn4)cc3)c12` [Example 8, (1S,3R)-3-(8-amino-1-{4-[(4-cyclopropyl-pyridin-2-yl)carbamoyl]phenyl}imidazo [1,5-a]pyrazin-3-yl)cyclohexane-carboxylic acid], for which the concentration for half-maximal inhibition (IC50) in test [1] was determined as 2.1 nM.
Still for that read-out and setting: the result for `CCc1ccnc(NC(=O)c2ccc(-c3nc([C@@H]4CCC[C@H](C(=O)O)C4)n4ccnc(N)c34)cc2)c1` [Example 7, (1S,3R)-3-(8-amino-1-{4-[(4-ethylpyridin-2-yl)carbamoyl]phenyl}imidazo [1,5-a]pyrazin-3-yl)cyclohexane-carboxylic acid] reads 1.4 nM.
